Earlier results, collected in patent US11744789B2, “Method for dyeing keratinous material, comprising the use of an organosilicon compound, a colored effect pigment and a sealing reagent III” (Henkel AG & Co. KGaA, priority 2019, dated 2023).

Conditions: for solubility in water: 25° C.

solubility in water (in words) (at 25° C.) | Structure (SMILES) | solubility in water
– | O=S(=O)(O)c1ccc(N=Nc2c(O)ccc3ccccc23)cc1 [Acid Orange 7, 4-[(2-hydroxy-1-naphthyl)azo]benzene sulphonate] | more than 7 g/L
– | O=[N+]([O-])c1cc([N+](=O)[O-])c2ccc(S(=O)(=O)O)cc2c1O [Acid Yellow 9, 8-hydroxy-5,7-dinitro-2-naphthalenesulfonic acid] | above 40 g/L
highly soluble in water | O=C(O)C1=NN(c2ccc(S(=O)(=O)O)cc2)C(=O)C1N=Nc1ccc(S(=O)(=O)O)cc1 (stereo not drawn) [Acid Yellow 23, 4,5-dihydro-5-oxo-1-(4-sulfophenyl)-4-((4-sulfophenyl)azo)-1H-pyrazole-3-carboxylic acid] | –
